Measurements from patent US9771341B2, “Piperazine carbamates and methods of making and using same” (Abide Therapeutics, Inc., priority 2015, dated 2017).

Experiments:
Format in all cases: biochemical
[1] = target: T1, ABHD6 (Mus musculus, UniProt Q8R2Y0); experiment: In vitro competitive activity-based protein profiling (mouse), ABHD6; conditions: for inhibition at 1 µM: mouse proteome, in vitro, read-out: % Inhibition at 1 μM ABHD6; for IC50: mouse brain membrane fraction or cell lysates, 30 min preincubation at 37° C, FP-Rh probe
T1 construct: Proteomes (mouse brain membrane fraction or cell lysates); from tissue; host or cells: mouse brain membrane fraction (or unspecified cell lysates)
T1 sequence (Q8R2Y0 1-336): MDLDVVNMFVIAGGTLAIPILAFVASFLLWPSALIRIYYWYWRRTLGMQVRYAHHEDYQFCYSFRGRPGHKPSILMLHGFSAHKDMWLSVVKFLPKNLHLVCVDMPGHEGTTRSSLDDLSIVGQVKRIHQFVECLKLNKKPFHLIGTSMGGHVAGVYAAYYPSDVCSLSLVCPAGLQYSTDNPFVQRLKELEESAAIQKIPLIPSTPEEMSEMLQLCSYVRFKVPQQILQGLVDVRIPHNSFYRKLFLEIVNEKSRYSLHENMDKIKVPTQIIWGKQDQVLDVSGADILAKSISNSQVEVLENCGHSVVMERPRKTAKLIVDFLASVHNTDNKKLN
Protocol: (§1) In Vitro Competitive Activity-Based Protein Profiling (Mouse).
(§2) Proteomes (mouse brain membrane fraction or cell lysates) (50 μL, 1.0 mg/mL total protein concentration) were preincubated with varying concentrations of inhibitors at 37° C. After 30 min, FP-Rh (1.0 μL, 50 μM in DMSO) was added and the mixture was incubated for another 30 min at 37° C. Reactions were quenched with SDS loading buffer (50 μL-4×) and run on SDS-PAGE.

[2] = target: T2, FAAH (Mus musculus, UniProt O08914); experiment: In vitro competitive activity-based protein profiling (mouse), FAAH; conditions: for inhibition at 1 µM: mouse proteome, in vitro; for IC50: mouse brain membrane fraction or cell lysates, 30 min preincubation at 37° C, FP-Rh probe
T2 construct: Proteomes (mouse brain membrane fraction or cell lysates); from tissue; host or cells: mouse brain membrane fraction (or unspecified cell lysates)
T2 sequence (O08914 1-579): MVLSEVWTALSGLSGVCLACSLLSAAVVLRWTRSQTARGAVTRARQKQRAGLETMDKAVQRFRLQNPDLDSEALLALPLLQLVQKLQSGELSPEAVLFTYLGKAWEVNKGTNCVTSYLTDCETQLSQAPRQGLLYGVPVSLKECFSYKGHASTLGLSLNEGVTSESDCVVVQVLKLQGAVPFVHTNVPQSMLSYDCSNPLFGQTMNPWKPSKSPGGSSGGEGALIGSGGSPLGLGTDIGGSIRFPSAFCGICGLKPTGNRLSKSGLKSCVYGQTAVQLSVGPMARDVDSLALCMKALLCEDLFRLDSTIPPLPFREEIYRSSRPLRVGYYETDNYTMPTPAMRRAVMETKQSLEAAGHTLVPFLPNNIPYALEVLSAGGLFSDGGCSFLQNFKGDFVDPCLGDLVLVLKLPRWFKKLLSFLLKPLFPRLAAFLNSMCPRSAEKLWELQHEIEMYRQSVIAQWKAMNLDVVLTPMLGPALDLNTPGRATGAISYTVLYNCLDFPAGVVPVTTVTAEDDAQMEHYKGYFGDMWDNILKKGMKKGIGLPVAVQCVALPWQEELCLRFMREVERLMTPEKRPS
Summary of the method: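 Competitive ABPP: inhibitor exposure (30 min, 37° C) of mouse brain membrane or lysate proteome at 1.0 mg/mL, then labelling with FP-Rh for another 30 min. Activity quantified by in-gel fluorescence of FAAH bands after SDS-PAGE.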

[3] = target: T3, MAGL (Mus musculus, UniProt O35678); experiment: In vitro competitive activity-based protein profiling (mouse), MAGL; conditions: for inhibition at 1 µM: mouse proteome, in vitro, read-out: % Inhibition at 1 μM MAGL; for IC50: mouse brain membrane fraction or cell lysates, 30 min preincubation at 37° C, FP-Rh probe
T3 construct: Proteomes (mouse brain membrane fraction or cell lysates); from tissue; host or cells: mouse brain membrane fraction (or unspecified cell lysates)
T3 sequence (O35678 1-303): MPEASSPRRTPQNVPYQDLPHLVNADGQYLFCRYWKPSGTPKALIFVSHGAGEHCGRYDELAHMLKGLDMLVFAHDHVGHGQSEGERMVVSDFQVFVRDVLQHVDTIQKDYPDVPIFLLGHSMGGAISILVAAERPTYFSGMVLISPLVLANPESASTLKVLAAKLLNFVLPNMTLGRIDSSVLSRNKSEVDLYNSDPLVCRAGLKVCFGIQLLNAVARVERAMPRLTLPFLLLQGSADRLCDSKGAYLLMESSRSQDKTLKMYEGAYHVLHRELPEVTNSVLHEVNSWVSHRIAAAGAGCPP
Protocol: as §1, §2

SMILES	inhibition at 1 µM [1] [%]	IC50 [1] [nM]	inhibition at 1 µM [2] [%]	IC50 [2] [nM]	inhibition at 1 µM [3] [%]	IC50 [3] [nM]
O=C(OC(C(F)(F)F)C(F)(F)F)N1CCN(Cc2ccc(C(F)(F)F)cc2N2CCC(CO)C2)CC1 (stereo not drawn) [Example 73, 1,1,1,3,3,3-hexafluoropropan-2-yl 4-(2-(3-(hydroxymethyl)pyrrolidin-1-yl)-4-(trifluoromethyl)benzyl)piperazine-1-carboxylate]	> 75	100 to 1000	< 25	> 1000	> 75	< 100
O=C(O)[C@@H]1CCCN1c1cc(CN2CCN(C(=O)OC(C(F)(F)F)C(F)(F)F)CC2)ccc1C(F)(F)F [Example 77, (5-((4-(((1,1,1,3,3,3-hexafluoropropan-2-yl)oxy)carbonyl)piperazin-1-yl)methyl)-2-(trifluoromethyl)phenyl)proline]	> 75	> 1000	< 25	> 1000	> 75	100 to 1000
CCOC(=O)C1CCCN1c1cc(CN2CCN(C(=O)OC(C(F)(F)F)C(F)(F)F)CC2)ccc1C(F)(F)F (stereo not drawn) [Example 78, 1,1,1,3,3,3-hexafluoropropan-2-yl 4-(3-(2-(ethoxycarbonyl)pyrrolidin-1-yl)-4-(trifluoromethyl)benzyl)piperazine-1-carboxylate]	> 75	100 to 1000	< 25	> 1000	> 75	< 100
O=C(OC(C(F)(F)F)C(F)(F)F)N1CCN(Cc2ccc(C(F)(F)F)c(N3CCCC3CO)c2)CC1 (stereo not drawn) [Example 79, 1,1,1,3,3,3-hexafluoropropan-2-yl 4-(3-(2-(hydroxymethyl)pyrrolidin-1-yl)-4-(trifluoromethyl)benzyl)piperazine-1-carboxylate]	> 75	< 100	< 25	> 1000	> 75	< 100
O=C(OC(C(F)(F)F)C(F)(F)F)N1CCN(Cc2ccc(C(F)(F)F)c(N3CCC(CO)CC3)c2)CC1 [Example 82, 1,1,1,3,3,3-hexafluoropropan-2-yl 4-(3-(4-(hydroxymethyl)piperidin-1-yl)-4-(trifluoromethyl)benzyl)piperazine-1-carboxylate]	> 75	100 to 1000	< 25	> 1000	> 75	< 100
O=C(O)C1CN(c2cc(CN3CCN(C(=O)OC(C(F)(F)F)C(F)(F)F)CC3)ccc2C(F)(F)F)CCO1 (stereo not drawn) [Example 83, 4-(5-((4-(((1,1,1,3,3,3-hexafluoropropan-2-yl)oxy)carbonyl)piperazin-1-yl)methyl)-2-(trifluoromethyl)phenyl)morpholine-2-carboxylic acid]	< 25	100 to 1000	< 25	> 1000	> 75	< 100
O=C(O)C1CCN(c2cc(CN3CCN(C(=O)OC(C(F)(F)F)C(F)(F)F)CC3)ccc2C(F)(F)F)CC1 [Example 85, 1-(5-((4-(((1,1,1,3,3,3-hexafluoropropan-2-yl)oxy)carbonyl)piperazin-1-yl)methyl)-2-(trifluoromethyl)phenyl)piperidine-4-carboxylic acid]	> 75	100 to 1000	< 25	> 1000	25 to 75	100 to 1000
CCOC(=O)C1CCCN1c1cc(CN2CCN(C(=O)OC(C(F)(F)F)C(F)(F)F)CC2)cc(C(F)(F)F)c1 (stereo not drawn) [Example 87, 1,1,1,3,3,3-hexafluoropropan-2-yl 4-(3-(2-(ethoxycarbonyl)pyrrolidin-1-yl)-5-(trifluoromethyl)benzyl)piperazine-1-carboxylate]	> 75	100 to 1000	< 25	> 1000	> 75	< 100
O=C(O)C1CCN(c2cc(CN3CCN(C(=O)OC(C(F)(F)F)C(F)(F)F)CC3)cc(C(F)(F)F)c2)C1 (stereo not drawn) [Example 89, 1-(3-((4-(((1,1,1,3,3,3-hexafluoropropan-2-yl)oxy)carbonyl)piperazin-1-yl)methyl)-5-(trifluoromethyl)phenyl)pyrrolidine-3-carboxylic acid]	> 75	< 100	< 25	> 1000	> 75	100 to 1000
O=C(OC(C(F)(F)F)C(F)(F)F)N1CCN(Cc2cc(N3CCC(CO)C3)cc(C(F)(F)F)c2)CC1 (stereo not drawn) [Example 90, 1,1,1,3,3,3-hexafluoropropan-2-yl 4-(3-(3-(hydroxymethyl)pyrrolidin-1-yl)-5-(trifluoromethyl)benzyl)piperazine-1-carboxylate]	> 75	100 to 1000	< 25	> 1000	> 75	< 100

Results, then the compound that gave them:

inhibition at 1 µM [1] [%]	IC50 [1] [nM]	inhibition at 1 µM [2] [%]	IC50 [2] [nM]	inhibition at 1 µM [3] [%]	IC50 [3] [nM]	SMILES
> 75	> 1000	< 25	> 1000	> 75	< 100	O=C(O)C(=O)c1cc(C(F)(F)F)ccc1CN1CCN(C(=O)OC(C(F)(F)F)C(F)(F)F)CC1 [Example 76, 2-(2-((4-(((1,1,1,3,3,3-hexafluoropropan-2-yl)oxy)carbonyl)piperazin-1-yl)methyl)-5-(trifluoromethyl)phenyl)-2-oxoacetic acid]
25 to 75	100 to 1000	< 25	> 1000	> 75	< 100	O=C(O)C1CCN(c2cc(CN3CCN(C(=O)OC(C(F)(F)F)C(F)(F)F)CC3)ccc2C(F)(F)F)C1 (stereo not drawn) [Example 80, 1-(5-((4-(((1,1,1,3,3,3-hexafluoropropan-2-yl)oxy)carbonyl)piperazin-1-yl)methyl)-2-(trifluoromethyl)phenyl)pyrrolidine-3-carboxylic acid]
> 75	100 to 1000	< 25	> 1000	> 75	100 to 1000	O=C(OC(C(F)(F)F)C(F)(F)F)N1CCN(Cc2ccc(C(F)(F)F)c(N3CCC(CO)C3)c2)CC1 (stereo not drawn) [Example 81, 1,1,1,3,3,3-hexafluoropropan-2-yl 4-(3-(3-(hydroxymethyl)pyrrolidin-1-yl)-4-(trifluoromethyl)benzyl)piperazine-1-carboxylate]
> 75	< 100	< 25	> 1000	> 75	< 100	O=C(O)C(=O)c1cc(CN2CCN(C(=O)OC(C(F)(F)F)C(F)(F)F)CC2)ccc1C(F)(F)F [Example 84, 2-(5-((4-(((1,1,1,3,3,3-hexafluoropropan-2-yl)oxy)carbonyl)piperazin-1-yl)methyl)-2-(trifluoromethyl)phenyl)-2-oxoacetic acid]
25 to 75	100 to 1000	< 25	> 1000	> 75	100 to 1000	O=C(OC(C(F)(F)F)C(F)(F)F)N1CCN(Cc2cc(N3CCCC3CO)cc(C(F)(F)F)c2)CC1 (stereo not drawn) [Example 88, 1,1,1,3,3,3-hexafluoropropan-2-yl 4-(3-(2-(hydroxymethyl)pyrrolidin-1-yl)-5-(trifluoromethyl)benzyl)piperazine-1-carboxylate]
